# Measurements from PubChem BioAssay (NCI).
#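 Compound exposure: 48 hours, 5 concentrations, 96-well plates. At the GI50, growth is halved. Definition used: TGI = concentration required for complete inhibition of growth.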
# Columns and labels:
# Test in all cases: inhibition of tumour cell growth, NCI panel, 48 h
# [1] = tested on: A498 renal
# [2] = tested on: HCT-116 colon
# [3] = tested on: DU-145 prostate
# [4] = tested on: CAKI-1 renal
# [5] = tested on: HOP-62 NSCLC
# [6] = tested on: SK-MEL-5 melanoma
# [7] = tested on: CCRF-CEM leukemia
# [8] = tested on: HCC-2998 colon
# [9] = tested on: SW-620 colon
# [10] = tested on: SF-295 CNS
# [11] = tested on: BT-549 breast
# [12] = tested on: SNB-19 CNS
# [13] = tested on: SK-MEL-2 melanoma
# [14] = tested on: SK-MEL-28 melanoma
# [15] = tested on: NCI-H23 lung
# [16] = tested on: OVCAR-8 ovarian
# [17] = tested on: HT29 colon
# [18] = tested on: SK-OV-3 ovarian
# [19] = tested on: UO-31 renal
# [20] = tested on: NCI/ADR-RES ovarian
# [21] = tested on: HL-60(TB) leukemia
# [22] = tested on: OVCAR-3 ovarian
# [23] = tested on: U251 CNS
# [24] = tested on: NCI-H460 lung
# [25] = tested on: HS 578T breast
# [26] = tested on: ACHN renal
# [27] = tested on: SR leukemia
# [28] = tested on: MDA-MB-435
# [29] = tested on: RPMI-8226 leukemia
# [30] = tested on: UACC-257 melanoma
# [31] = tested on: HCT-15 colon
# [32] = tested on: MALME-3M melanoma
# [33] = tested on: 786-0 renal
# [34] = tested on: UACC-62 melanoma
# [35] = tested on: KM12 colon
# [36] = tested on: A549 NSCLC
# [37] = tested on: MOLT-4 leukemia
# [38] = tested on: EKVX NSCLC
# [39] = tested on: SF-268 CNS
# [40] = tested on: MCF7 breast
# [41] = tested on: PC-3 prostate
# [42] = tested on: COLO 205 colon
# [43] = tested on: OVCAR-4 ovarian
# [44] = tested on: M14 melanoma
# [45] = tested on: SF-539 CNS
# [46] = tested on: IGROV1 ovarian
# [47] = tested on: NCI-H522 lung
# [48] = tested on: LOX IMVI melanoma
# [49] = tested on: OVCAR-5 ovarian
# [50] = tested on: K-562 leukemia
# [51] = tested on: NCI-H226 lung
# [52] = tested on: SN12C renal
# [53] = tested on: SNB-75 CNS
# [54] = tested on: TK-10 renal
# [55] = tested on: MDA-MB-231 breast
# [56] = tested on: RXF 393 renal
# [57] = tested on: HOP-92 NSCLC
smiles,measurement,setting,value
CCN(CC)c1ccc2cc(C(=O)Nc3ccccc3OC)c(=N)oc2c1,TGI,[1],> 100 µM
same,TGI,[2],> 100 µM
same,TGI,[3],> 100 µM
same,TGI,[4],72.1 µM
same,TGI,[5],> 100 µM
same,TGI,[6],> 100 µM
same,TGI,[7],20.8 µM
same,TGI,[8],> 100 µM
same,TGI,[9],> 100 µM
same,TGI,[10],> 100 µM
same,TGI,[11],74.5 µM
same,TGI,[12],> 100 µM
same,TGI,[13],> 100 µM
same,TGI,[14],> 100 µM
same,TGI,[15],89.8 µM
same,TGI,[16],23 µM
same,TGI,[17],> 100 µM
same,TGI,[18],> 100 µM
same,TGI,[19],1.58 µM
same,TGI,[20],90.8 µM
same,TGI,[21],31.6 µM
same,TGI,[22],> 100 µM
same,TGI,[23],> 100 µM
same,TGI,[24],> 100 µM
same,TGI,[25],98.4 µM
same,TGI,[26],> 100 µM
same,TGI,[27],> 100 µM
same,TGI,[28],> 100 µM
same,TGI,[29],88.7 µM
same,TGI,[30],> 100 µM
same,TGI,[31],88.3 µM
same,TGI,[32],> 100 µM
same,TGI,[33],> 100 µM
same,TGI,[34],> 100 µM
same,TGI,[35],> 100 µM
same,TGI,[36],> 100 µM
same,TGI,[37],17.2 µM
same,TGI,[38],> 100 µM
same,TGI,[39],> 100 µM
same,TGI,[40],> 100 µM
same,TGI,[41],59.6 µM
same,TGI,[42],> 100 µM
same,TGI,[43],> 100 µM
same,TGI,[44],> 100 µM
same,TGI,[45],> 100 µM
same,TGI,[46],35.3 µM
same,TGI,[47],65.6 µM
same,TGI,[48],58.2 µM
same,TGI,[49],> 100 µM
same,TGI,[50],> 100 µM
CCOC(=O)c1ccc(NC(=O)Nc2nccs2)cc1,GI50,[1],0.0795 µM
same,TGI,[1],0.568 µM
same,GI50,[2],0.0605 µM
same,GI50,[51],0.363 µM
same,GI50,[3],0.107 µM
same,TGI,[3],0.69 µM
same,GI50,[4],0.398 µM
same,TGI,[4],44.8 µM
same,GI50,[5],2.51 µM
same,TGI,[5],> 45.1 µM
same,GI50,[6],0.0285 µM
same,TGI,[6],0.211 µM
same,GI50,[7],0.448 µM
same,TGI,[7],> 100 µM
same,GI50,[8],0.204 µM
same,TGI,[8],4.45 µM
same,GI50,[9],0.0283 µM
same,TGI,[9],35.6 µM
same,GI50,[10],0.627 µM
same,TGI,[10],15.5 µM
same,GI50,[11],0.328 µM
same,TGI,[11],2.54 µM
same,GI50,[12],0.128 µM
same,TGI,[12],42.8 µM
same,GI50,[13],0.819 µM
same,TGI,[13],46.8 µM
same,GI50,[14],0.0712 µM
same,TGI,[14],25.8 µM
same,GI50,[15],0.0668 µM
same,TGI,[15],36.6 µM
same,GI50,[16],0.0532 µM
same,TGI,[16],3.17 µM
same,GI50,[17],0.0336 µM
same,GI50,[18],0.0445 µM
same,TGI,[18],9.76 µM
same,GI50,[19],0.49 µM
same,TGI,[19],57.8 µM
same,GI50,[21],0.459 µM
same,TGI,[21],7.76 µM
same,GI50,[23],0.0478 µM
same,TGI,[23],25.1 µM
same,GI50,[24],0.0375 µM
same,TGI,[24],2.06 µM
same,GI50,[25],0.033 µM
same,TGI,[25],33.2 µM
same,GI50,[26],0.297 µM
same,TGI,[26],> 100 µM
same,GI50,[27],0.0302 µM
same,GI50,[52],0.371 µM
same,TGI,[52],27.1 µM
same,GI50,[53],1.55 µM
same,TGI,[53],> 48.9 µM
same,GI50,[54],0.0381 µM
same,TGI,[54],0.669 µM
same,GI50,[29],0.698 µM
same,TGI,[29],> 39.5 µM
same,GI50,[30],11.1 µM
same,TGI,[30],24.1 µM
same,GI50,[31],0.0364 µM
same,TGI,[31],> 45.5 µM
same,GI50,[32],1.24 µM
same,TGI,[32],31.5 µM
same,GI50,[33],0.716 µM
same,TGI,[33],> 46.4 µM
same,GI50,[34],0.044 µM
same,TGI,[34],20.4 µM
same,GI50,[35],0.11 µM
same,TGI,[35],1.01 µM
same,GI50,[55],0.275 µM
same,TGI,[55],2.98 µM
same,GI50,[36],0.0725 µM
same,GI50,[37],0.379 µM
same,TGI,[37],31.3 µM
same,GI50,[38],0.162 µM
same,TGI,[38],> 96.6 µM
same,GI50,[39],0.201 µM
same,TGI,[39],16.9 µM
same,GI50,[40],0.0309 µM
same,TGI,[40],13.9 µM
same,GI50,[56],0.0434 µM
same,TGI,[56],> 100 µM
same,GI50,[41],0.443 µM
same,TGI,[41],39.8 µM
same,GI50,[42],0.0336 µM
same,TGI,[42],0.117 µM
same,GI50,[43],0.0631 µM
same,TGI,[43],> 66.3 µM
same,GI50,[44],0.0346 µM
same,TGI,[44],> 100 µM
same,GI50,[45],0.106 µM
same,TGI,[45],0.385 µM
same,GI50,[46],0.064 µM
same,TGI,[46],24 µM
same,GI50,[57],5.25 µM
same,TGI,[57],40.4 µM
same,GI50,[47],0.0724 µM
same,TGI,[47],0.688 µM
same,GI50,[48],0.0987 µM
same,TGI,[48],50.1 µM
same,GI50,[49],1.1 µM
same,TGI,[49],> 100 µM
same,GI50,[50],0.0314 µM
same,TGI,[50],30.1 µM
